In US20240409558A1, “IRREVERSIBLE INHIBITORS OF KRAS” (BIOMEA FUSION, INC., priority 2021, published 2024):
Like-named read-outs stand apart in the source and are kept apart here.

Test system: human KRAS G12C mutated cell line MIA PaCa-2
Assay: Inhibition of proliferation of MIA PaCa-2 cells (CellTiter-Glo, 7 day)
Type: cell-based
Settings: 168 h, mean, read-out: MIA PaCa-2 IC50 (μM) 7 day Mean
Description: The present example evaluates the ability of compounds provided herein to inhibit proliferation of KRAS mutant cells.
The proliferation inhibitory effect was investigated in the human KRAS G12C mutated cell line MIA PaCa-2 (Yunis et al., 1977, Int. J. Cancer 19(1):128-135; ATCC catalog no. CRL-1420). Cells were maintained in RPMI-1640 medium (ThermoFisher catalog no. 61870036) supplemented with 10% of Heat Inactivated FBS (ThermoFisher catalog no. A31605) and 1% Pen-Strep (ThermoFisher catalog no. 10378016) and cultured at 37° C. in a humidified incubator with 5% CO2. Cell lines were grown by adhering to culture flasks, and the cells were maintained in a range 70%-80% confluency.
ATP is present in all metabolically active cells and is considered as a marker for cell viability and proliferation. Metabolic cell activity was determined using the CellTiter-Glo kit (Promega catalog no. G7572), an ATP monitoring system based on the production of luminescence by the reaction of ATP with added UltraGlo® recombinant luciferase (Kawano et al., 2016, PLOS One, 8; 11(7):e0158888), according to the supplier's experimental recommendations. The assay was based on a 96 well plate format.
Test compounds were dissolved at 10 mM in DMSO (Sigma catalog no. D8418; purity >99.9%) and stored at −20° C. Eight concentrations of test compound were assessed in duplicate in an individual test occasion in parallel in the selected cell lines. MRTX-849 and AMG-510 were used as reference compounds and tested in duplicate at eight concentrations. 100% of proliferation is represented by the untreated cells (0.2% DMSO).
(§1) On the day of the experiment (TO), cells were detached with TrypLE (ThermoFisher catalog no. 12604054) and quantified using the Vi-CELL XR Cell Viability (Beckman Coulter) analyzer and diluted with fresh medium to obtain the cell density of about 1000 cells per 200 μL medium. 200 μL of cell suspension were added into wells in the 96 well plate.
After 2 hours from seeding cells, compounds were added using a D300e compound dispenser (Tecan Trading AG) at desired concentrations with shaking between each compound dispensed. Cell plates containing 200 μL/well were incubated at 37° C. in a humidified incubator with 5% CO2.
On day T3, 150 μL of growth media per well were removed from plates containing the samples, 150 uL fresh growth media were added to each well, and fresh compounds were added using a D300e compound dispenser (Tecan Trading AG) at desired concentrations with shaking between each compound dispensed. Cell plates containing 200 uL/well were incubated at 37° C. in a humidified incubator with 5% CO2. On day T7 plates containing the samples were equilibrated at room temperature for approximately 15 min, and then 40 μL/well of the Promega CellTiterGlo® reagent was added. Contents were mixed for 30 minutes on an orbital shaker to induce cell lysis. Luminescence was read using a Synergy Neo 2 (Agilent Technologies.
Data was expressed as % of inhibition compared to the 0.2% DMSO negative control, and is calculated as follows: % inhibition=100−[(RLU sample)×100/(RLU controls*)], where * indicates the average for 0.2% DMSO. […]
as §1, with “12604054),” for “12604054) and”, “resuspended in” for “diluted with”, “at a” for “to obtain the”, “to each well of a” for “into wells in the”
Two hours after seeding cells, compounds were added at desired concentrations using a D300e compound dispenser (Tecan Trading AG) with shaking after each compound addition. Assay plates were incubated at 37° C. in a humidified incubator with 5% CO2.
On day 3 (T3) 150 μL of medium from assay plates were removed. 150 μL fresh medium and compounds were added at desired concentrations using a D300e compound dispenser (Tecan Trading AG) with shaking after each compound addition. […]

SMILES | IC50 (Table 4, 7 day) | IC50 (Table 3, 7 day)
Oc1cc(Cl)c(C2CC2)c(-c2cc3nc(OC[C@@]45CCCN4C[C@H](F)C5)nc(N4CCNCC45CC5)c3cc2F)c1 [Compound 412, 3-chloro-4-cyclopropyl-5-[4-(4,7-diazaspiro[2.5]octan-4-yl)-6-fluoro-2-[[(2R,8S)-2-fluoro-1,2,3,5,6,7-hexahydropyrrolizin-8-yl]methoxy]quinazolin-7-yl]phenol] | > 1 µM | 
C=CC(=O)N1C2CCC1CN(c1nc(OC[C@@]34CCCN3C[C@H](F)C4)nc3cc(-c4cc(O)cc(Cl)c4C4CC4)cnc13)C2 [Compound 309] |  | > 1 µM
C=CC(=O)N1CCN(c2nc(OC[C@@]34CCCN3C[C@H](F)C4)nc3cc(-c4cccc5cccc(Cl)c45)c(F)cc23)CC12CC2 [Compound 323] |  | > 1 µM
C[C@@H]1CC(c2nc(OC[C@@]34CCCN3C[C@H](F)C4)nc3c(F)c(-c4cc(O)cc5ccc(F)c(F)c45)ncc23)CCN1 (stereo partly drawn) [Compound 440, 5,6-difluoro-4-[8-fluoro-2-[[(2R,8S)-2-fluoro-1,2,3,5,6,7-hexahydropyrrolizin-8-yl]methoxy]-4-[(2R)-2-methyl-4-piperidyl]pyrido[4,3-d]pyrimidin-7-yl]naphthalen-2-ol] | 3.65 µM | 
C=CC(=O)N1C2CCC1CN(c1nc(OC[C@@]34CCCN3C[C@H](F)C4)nc3c(F)c(-c4cc(O)cc5ccc(F)c(F)c45)ncc13)C2 [Compound 306, 1-[3-[7-(7,8-difluoro-3-hydroxy-1-naphthyl)-8-fluoro-2-[[(2R,8S)-2-fluoro-1,2,3,5,6,7-hexahydropyrrolizin-8-yl]methoxy]pyrido[4,3-d]pyrimidin-4-yl]-3,8-diazabicyclo[3.2.1]octan-8-yl]prop-2-en-1-one] |  | 0.0015 µM
C[C@@H]1CNCCN1c1nc(OC[C@@]23CCCN2C[C@H](F)C3)nc2cc(-c3c(O)cccc3C3CC3)cnc12 [Compound 413] | > 1 µM | 
Oc1cc(Cl)c(C2CC2)c(-c2ncc3c(N4CCC5(CC4)CN5)nc(OC[C@@]45CCCN4C[C@H](F)C5)nc3c2F)c1 [Compound 438, 3-chloro-4-cyclopropyl-5-[4-(1,6-diazaspiro[2.5]octan-6-yl)-8-fluoro-2-[[(2R,8S)-2-fluoro-1,2,3,5,6,7-hexahydropyrrolizin-8-yl]methoxy]pyrido[4,3-d]pyrimidin-7-yl]phenol] | 0.229 µM | 
Oc1cc(Cl)c(C2CC2)c(-c2ccc3c(C4CCNCC4)nc(OC[C@@]45CCCN4C[C@H](F)C5)nc3c2F)c1 [Compound 430, 3-chloro-4-cyclopropyl-5-[8-fluoro-2-[[(2R,8S)-2-fluoro-1,2,3,5,6,7-hexahydropyrrolizin-8-yl]methoxy]-4-(4-piperidyl)quinazolin-7-yl]phenol] | 0.983 µM | 
C=CC(=O)N1CCN(c2nc(OC[C@@]34CCCN3C[C@H](F)C4)nc3cc(-c4cc(O)cc(Cl)c4C4CC4)cnc23)CC12CC2 [Compound 314, 1-[7-[7-(3-chloro-2-cyclopropyl-5-hydroxy-phenyl)-2-[[(2R,8S)-2-fluoro-1,2,3,5,6,7-hexahydropyrrolizin-8-yl]methoxy]pyrido[3,2-d]pyrimidin-4-y1]-4,7-diazaspiro[2.5]octan-4-yl]prop-2-en-1-one] |  | > 1 µM
Oc1cccc(Cl)c1-c1cc(F)c2c(N3CCNCC34CC4)nc(OC[C@@]34CCCN3C[C@H](F)C4)nc2c1 [Compound 419, 3-chloro-2-[4-(4,7-diazaspiro[2.5]octan-4-yl)-5-fluoro-2-[[(2R,8S)-2-fluoro-1,2,3,5,6,7-hexahydropyrrolizin-8-yl]methoxy]quinazolin-7-yl]phenol] | > 1 µM | 
C=CC(=O)N1C2CCC1CC(c1nc(OC[C@@]34CCCN3C[C@H](F)C4)nc3c(F)c(-c4cc(O)cc5ccc(F)c(F)c45)ncc13)C2 (stereo partly drawn) [Compound 333] |  | 1.75 µM
Oc1cc(Cl)c(C2CC2)c(-c2cc3nc(OC[C@@]45CCCN4C[C@H](F)C5)nc(N4CCNC5(CC5)C4)c3cc2F)c1 [Compound 405, 3-chloro-4-cyclopropyl-5-[4-(4,7-diazaspiro[2.5]octan-7-y1)-6-fluoro-2-[[(2R,8S)-2-fluoro-1,2,3,5,6,7-hexahydropyrrolizin-8-yl]methoxy]quinazolin-7-yl]phenol] | > 1 µM | 
C=CC(=O)N1C2CCC1CN(c1nc(OC[C@@]34CCCN3C[C@H](F)C4)nc3c(F)c(N4CC(O)Cc5cccc(Cl)c54)ncc13)C2 (stereo partly drawn) [Compound 328, 1-[3-[7-(8-chloro-3-hydroxy-3,4-dihydro-2H-quinolin-1-yl)-8-fluoro-2-[[(2R,8S)-2-fluoro-1,2,3,5,6,7-hexahydropyrrolizin-8-yl]methoxy]pyrido[4,3-d]pyrimidin-4-yl]-3,8-diazabicyclo[3.2.1]octan-8-yl]prop-2-en-1-one] |  | > 1 µM
Oc1cccc(Cl)c1-c1cc(F)c2c(N3C[C@H]4C[C@@H]3CN4)nc(OC[C@@]34CCCN3C[C@H](F)C4)nc2c1 [Compound 418] | > 1 µM | 
Oc1cc2cccc(-c3ncc4c(N5CC6CCC(C5)N6)nc(OC[C@@]56CCCN5C[C@H](F)C6)nc4c3F)c2c(F)c1F [Compound 401, 5-[4-(3,8-diazabicyclo[3.2.1]octan-3-yl)-8-fluoro-2-[[(2R,8S)-2-fluoro-1,2,3,5,6,7-hexahydropyrrolizin-8-yl]methoxy]pyrido[4,3-d]pyrimidin-7-y1]-3,4-difluoro-naphthalen-2-ol] | > 1 µM | 

The next lines start with the values.

IC50 (Table 4, 7 day) | IC50 (Table 3, 7 day) | SMILES
 | 0.0144 µM | C=CC(=O)N1CCC(c2nc(OC[C@@]34CCCN3C[C@H](F)C4)nc3c(F)c(-c4cc(O)cc(Cl)c4C4CC4)ncc23)CC1 [Compound 329]
> 1 µM |  | Oc1cc(Cl)c(C2CC2)c(-c2ncc3c(C4CCNCC4)nc(OC[C@@]45CCCN4C[C@H](F)C5)nc3c2F)c1 [Compound 433]
 | > 1 µM | C=CC(=O)N1CCC(CC)(c2nc(OC[C@@]34CCCN3C[C@H](F)C4)nc3c(F)c(-c4cc(O)cc(Cl)c4C4CC4)ncc23)CC1 [Compound 332, 1-[4-[7-(3-chloro-2-cyclopropyl-5-hydroxy-phenyl)-8-fluoro-2-[[(2R,8S)-2-fluoro-1,2,3,5,6,7-hexahydropyrrolizin-8-yl]methoxy]pyrido[4,3-d]pyrimidin-4-yl]-4-ethyl-1-piperidyl]prop-2-en-1-one]
 | > 1 µM | C=CC(=O)N1CCN(c2nc(OC[C@@]34CCCN3C[C@H](F)C4)nc3cc(-c4cc(O)cc(Cl)c4C4CC4)c(F)cc23)CC12CC2 [Compound 317, 1-[7-[7-(3-chloro-2-cyclopropyl-5-hydroxy-phenyl)-6-fluoro-2-[[(2R,8S)-2-fluoro-1,2,3,5,6,7-hexahydropyrrolizin-8-yl]methoxy]quinazolin-4-yl]-4,7-diazaspiro[2.5]octan-4-yl]prop-2-en-1-one]
> 1 µM |  | C[C@H]1CC(c2nc(OC[C@@]34CCCN3C[C@H](F)C4)nc3c(F)c(-c4cc(O)cc5ccc(F)c(F)c45)ncc23)CCN1 (stereo partly drawn) [Compound 439, 5,6-difluoro-4-[8-fluoro-2-[[(2R,8S)-2-fluoro-1,2,3,5,6,7-hexahydropyrrolizin-8-yl]methoxy]-4-[(2S)-2-methyl-4-piperidyl]pyrido[4,3-d]pyrimidin-7-yl]naphthalen-2-ol]
 | 0.00443 µM | C=CC(=O)N1CCC(c2nc(OC[C@@]34CCCN3C[C@H](F)C4)nc3c(F)c(-c4cc(O)cc5ccc(F)c(F)c45)ncc23)C[C@H]1C (stereo in doubt) [Compound 334, 1-[(2R)-4-[7-(7,8-difluoro-3-hydroxy-1-naphthyl)-8-fluoro-2-[[(2R,8S)-2-fluoro-1,2,3,5,6,7-hexahydropyrrolizin-8-yl]methoxy]pyrido[4,3-d]pyrimidin-4-y1]-2-methyl-1-piperidyl]prop-2-en-1-one]
